Tested on: patients with advanced gastric cancer and cholangiocarcinoma
Test: Safety assessments
Assay type: in vivo, human
Details: 140 mg once daily

`CNC(=O)n1ccc2cc(Oc3ccnc(NC(=O)c4ccc(C5CCN(CCO)CC5)cc4)c3)c(OCCOC)cc21` [Tasurgratinib] was tested, and the “SAEs considered related to the study drug” value was “none and No treatment‐related SAEs”, the “dose reductions attributed to AST increased” value was 1 n and the “dose reductions attributed to PPE syndrome” value was 2 n. The “dose reductions attributed to decreased appetite” value was 1 n, the “dose reductions attributed to paronychia” value was 2 n and the “dose reductions attributed to stomatitis” value was 1 n. For the same compound, the “drug‐related deaths” value was “no drug‐related deaths”, the “severity of all hyperphosphatemia events” value was “grade 1 or 2” and the “ALT increased, TEAEs All grades” value (N = 16) was 3 (18.8) n (%). The “ALT increased, TEAEs Grade ≥3” value (N = 16) was 1 (6.3) n (%), the “ALT increased, TRAEs All grades” value (N = 16) was 2 (12.5) n (%) and the “ALT increased, TRAEs Grade ≥3” value (N = 16) was 0 (0.0) n (%). For the same compound, the “AST increased, TEAEs All grades” value (N = 16) was 4 (25.0) n (%), the “AST increased, TEAEs Grade ≥3” value (N = 16) was 2 (12.5) n (%) and the “AST increased, TRAEs All grades” value (N = 16) was 3 (18.8) n (%). The “AST increased, TRAEs Grade ≥3” value (N = 16) was 1 (6.3) n (%), the “Abdominal distension, TEAEs All grades” value (N = 16) was 4 (25.0) n (%) and the “Abdominal distension, TEAEs Grade ≥3” value (N = 16) was 1 (6.3) n (%). For the same compound, the “Abdominal distension, TRAEs All grades” value (N = 16) was 0 (0.0) n (%), the “Abdominal distension, TRAEs Grade ≥3” value (N = 16) was 0 (0.0) n (%) and the “Abdominal pain, TEAEs All grades” value (N = 16) was 2 (12.5) n (%). The “Abdominal pain, TEAEs Grade ≥3” value (N = 16) was 0 (0.0) n (%), the “Abdominal pain, TRAEs All grades” value (N = 16) was 0 (0.0) n (%) and the “Abdominal pain, TRAEs Grade ≥3” value (N = 16) was 0 (0.0) n (%). The “All AEs, TEAEs All grades” value (N = 16) was 16 (100.0) n (%), the “All AEs, TEAEs Grade ≥3” value (N = 16) was 11 (68.8) n (%) and the “All AEs, TRAEs All grades” value (N = 16) was 16 (100.0) n (%). For the same compound, the “All AEs, TRAEs Grade ≥3” value (N = 16) was 2 (12.5) n (%), the “Anemia, TEAEs All grades” value (N = 16) was 4 (25.0) n (%) and the “Anemia, TEAEs Grade ≥3” value (N = 16) was 2 (12.5) n (%). The “Anemia, TRAEs All grades” value (N = 16) was 1 (6.3) n (%), the “Anemia, TRAEs Grade ≥3” value (N = 16) was 0 (0.0) n (%) and the “Blood alkaline phosphatase increased, TEAEs All grades” value (N = 16) was 3 (18.8) n (%). The “Blood alkaline phosphatase increased, TEAEs Grade ≥3” value (N = 16) was 2 (12.5) n (%), the “Blood alkaline phosphatase increased, TRAEs All grades” value (N = 16) was 1 (6.3) n (%) and the “Blood alkaline phosphatase increased, TRAEs Grade ≥3” value (N = 16) was 0 (0.0) n (%). The “Blood creatinine increased, TEAEs All grades” value (N = 16) was 5 (31.3) n (%), the “Blood creatinine increased, TEAEs Grade ≥3” value (N = 16) was 0 (0.0) n (%) and the “Blood creatinine increased, TRAEs All grades” value (N = 16) was 3 (18.8) n (%). For the same compound, the “Blood creatinine increased, TRAEs Grade ≥3” value (N = 16) was 0 (0.0) n (%), the “Cancer pain, TEAEs All grades” value (N = 16) was 2 (12.5) n (%) and the “Cancer pain, TEAEs Grade ≥3” value (N = 16) was 0 (0.0) n (%). For the same compound, the “Cancer pain, TRAEs All grades” value (N = 16) was 0 (0.0) n (%), the “Cancer pain, TRAEs Grade ≥3” value (N = 16) was 0 (0.0) n (%) and the “Constipation, TEAEs All grades” value (N = 16) was 3 (18.8) n (%). The “Constipation, TEAEs Grade ≥3” value (N = 16) was 0 (0.0) n (%), the “Constipation, TRAEs All grades” value (N = 16) was 1 (6.3) n (%) and the “Constipation, TRAEs Grade ≥3” value (N = 16) was 0 (0.0) n (%). For the same compound, the “Decreased appetite, TEAEs All grades” value (N = 16) was 7 (43.8) n (%), the “Decreased appetite, TEAEs Grade ≥3” value (N = 16) was 2 (12.5) n (%) and the “Decreased appetite, TRAEs All grades” value (N = 16) was 2 (12.5) n (%). For the same compound, the “Decreased appetite, TRAEs Grade ≥3” value (N = 16) was 0 (0.0) n (%), the “Diarrhea, TEAEs All grades” value (N = 16) was 6 (37.5) n (%) and the “Diarrhea, TEAEs Grade ≥3” value (N = 16) was 1 (6.3) n (%). For the same compound, the “Diarrhea, TRAEs All grades” value (N = 16) was 4 (25.0) n (%), the “Diarrhea, TRAEs Grade ≥3” value (N = 16) was 0 (0.0) n (%) and the “Dry eye, TEAEs All grades” value (N = 16) was 2 (12.5) n (%). For the same compound, the “Dry eye, TEAEs Grade ≥3” value (N = 16) was 0 (0.0) n (%), the “Dry eye, TRAEs All grades” value (N = 16) was 1 (6.3) n (%) and the “Dry eye, TRAEs Grade ≥3” value (N = 16) was 0 (0.0) n (%). The “Dry mouth, TEAEs All grades” value (N = 16) was 3 (18.8) n (%), the “Dry mouth, TEAEs Grade ≥3” value (N = 16) was 0 (0.0) n (%) and the “Dry mouth, TRAEs All grades” value (N = 16) was 3 (18.8) n (%). The “Dry mouth, TRAEs Grade ≥3” value (N = 16) was 0 (0.0) n (%), the “Dry skin, TEAEs All grades” value (N = 16) was 3 (18.8) n (%) and the “Dry skin, TEAEs Grade ≥3” value (N = 16) was 0 (0.0) n (%). For the same compound, the “Dry skin, TRAEs All grades” value (N = 16) was 3 (18.8) n (%), the “Dry skin, TRAEs Grade ≥3” value (N = 16) was 0 (0.0) n (%) and the “Dysgeusia, TEAEs All grades” value (N = 16) was 6 (37.5) n (%). For the same compound, the “Dysgeusia, TEAEs Grade ≥3” value (N = 16) was 0 (0.0) n (%), the “Dysgeusia, TRAEs All grades” value (N = 16) was 5 (31.3) n (%) and the “Dysgeusia, TRAEs Grade ≥3” value (N = 16) was 0 (0.0) n (%). The “Epistaxis, TEAEs All grades” value (N = 16) was 2 (12.5) n (%), the “Epistaxis, TEAEs Grade ≥3” value (N = 16) was 0 (0.0) n (%) and the “Epistaxis, TRAEs All grades” value (N = 16) was 1 (6.3) n (%). The “Epistaxis, TRAEs Grade ≥3” value (N = 16) was 0 (0.0) n (%), the “Headache, TEAEs All grades” value (N = 16) was 2 (12.5) n (%) and the “Headache, TEAEs Grade ≥3” value (N = 16) was 1 (6.3) n (%). For the same compound, the “Headache, TRAEs All grades” value (N = 16) was 0 (0.0) n (%), the “Headache, TRAEs Grade ≥3” value (N = 16) was 0 (0.0) n (%) and the “Hyperphosphatemia, TEAEs All grades” value (N = 16) was 16 (100.0) n (%). For the same compound, the “Hyperphosphatemia, TEAEs Grade ≥3” value (N = 16) was 0 (0.0) n (%), the “Hyperphosphatemia, TRAEs All grades” value (N = 16) was 16 (100.0) n (%) and the “Hyperphosphatemia, TRAEs Grade ≥3” value (N = 16) was 0 (0.0) n (%). The “Hypoalbuminemia, TEAEs All grades” value (N = 16) was 3 (18.8) n (%), the “Hypoalbuminemia, TEAEs Grade ≥3” value (N = 16) was 1 (6.3) n (%) and the “Hypoalbuminemia, TRAEs All grades” value (N = 16) was 0 (0.0) n (%). The “Hypoalbuminemia, TRAEs Grade ≥3” value (N = 16) was 0 (0.0) n (%), the “Insomnia, TEAEs All grades” value (N = 16) was 2 (12.5) n (%) and the “Insomnia, TEAEs Grade ≥3” value (N = 16) was 0 (0.0) n (%). For the same compound, the “Insomnia, TRAEs All grades” value (N = 16) was 0 (0.0) n (%), the “Insomnia, TRAEs Grade ≥3” value (N = 16) was 0 (0.0) n (%) and the “Lipase increased, TEAEs All grades” value (N = 16) was 2 (12.5) n (%). For the same compound, the “Lipase increased, TEAEs Grade ≥3” value (N = 16) was 2 (12.5) n (%), the “Lipase increased, TRAEs All grades” value (N = 16) was 1 (6.3) n (%) and the “Lipase increased, TRAEs Grade ≥3” value (N = 16) was 1 (6.3) n (%).
